How the values were obtained:
Assay in all cases: relative viability (nuclei count vs DMSO), 5 days (fraction); higher = more cells survive
Elesclomol = compound: CN(NC(=O)CC(=O)NN(C)C(=S)c1ccccc1)C(=S)c1ccccc1 [Elesclomol]
How it was run: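 On vehicle-anchored 1536-well plates, lung cancer cell lines held overnight at 37 °C were pinned with five library-drug doses (not always all listed) spaced by √10. With no medium change over 5 days, they were then fixed, permeabilised and Hoechst-stained in one step and imaged at 4×. MetaXpress counted nuclei, and viability is the median across plates of treated-well over vehicle-well nuclei. Acceptance needed control CV below 25% and at least one doubling.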

Elesclomol + Pictilisib = compound: CN(NC(=O)CC(=O)NN(C)C(=S)c1ccccc1)C(=S)c1ccccc1 [Elesclomol] + CS(=O)(=O)N1CCN(Cc2cc3nc(-c4cccc5[nH]ncc45)nc(N4CCOCC4)c3s2)CC1 [Pictilisib] (partner 1 µM)
How it was run: (§1)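 For relative viability, nuclei counts in treated wells were divided by those in vehicle wells. Lung cancer cell lines had been pin-tool dosed in 1536-well plates the day after seeding and cultured for 5 days, then fixed and stained in one step (final 0.05% Triton X-100, 1% formaldehyde, 1 ug/ml Hoechst) and imaged at 4×. Doses were one drug alone or a fixed anchor-drug dose plus five library-drug doses (not always all listed) in √10 steps, and values are duplicate-plate medians.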

Elesclomol + OSI-027 = compound: CN(NC(=O)CC(=O)NN(C)C(=S)c1ccccc1)C(=S)c1ccccc1 [Elesclomol] + COc1cccc2cc(-c3nc([C@H]4CC[C@H](C(=O)O)CC4)n4ncnc(N)c34)[nH]c12 [OSI-027] (partner 0.5 µM)
How it was run: as §1

Elesclomol + Navitoclax = compound: CN(NC(=O)CC(=O)NN(C)C(=S)c1ccccc1)C(=S)c1ccccc1 [Elesclomol] + CC1(C)CCC(c2ccc(Cl)cc2)=C(CN2CCN(c3ccc(C(=O)NS(=O)(=O)c4ccc(N[C@H](CCN5CCOCC5)CSc5ccccc5)c(S(=O)(=O)C(F)(F)F)c4)cc3)CC2)C1 [Navitoclax] (partner 0.5 µM)
How it was run: as §1

Elesclomol + Decitabine = compound: CN(NC(=O)CC(=O)NN(C)C(=S)c1ccccc1)C(=S)c1ccccc1 [Elesclomol] + Nc1ncn([C@H]2C[C@H](O)[C@@H](CO)O2)c(=O)n1 [Decitabine] (partner 2 µM)
How it was run: as §1

| Cell Line | relative viability (Elesclomol; 0.003162 µM) | relative viability (Elesclomol; 0.01 µM) | relative viability (Elesclomol; 0.03162 µM) | relative viability (Elesclomol; 0.1 µM) | relative viability (Elesclomol + Pictilisib; first compound 0.003162 µM) | relative viability (Elesclomol + Pictilisib; first compound 0.01 µM) | relative viability (Elesclomol + Pictilisib; first compound 0.03162 µM) | relative viability (Elesclomol + Pictilisib; first compound 0.1 µM) | relative viability (Elesclomol + OSI-027; first compound 0.003162 µM) | relative viability (Elesclomol + OSI-027; first compound 0.01 µM) | relative viability (Elesclomol + OSI-027; first compound 0.03162 µM) | relative viability (Elesclomol + OSI-027; first compound 0.1 µM) | relative viability (Elesclomol + Navitoclax; first compound 0.003162 µM) | relative viability (Elesclomol + Navitoclax; first compound 0.01 µM) | relative viability (Elesclomol + Navitoclax; first compound 0.03162 µM) | relative viability (Elesclomol + Navitoclax; first compound 0.1 µM) | relative viability (Elesclomol + Decitabine; first compound 0.003162 µM) | relative viability (Elesclomol + Decitabine; first compound 0.01 µM) | relative viability (Elesclomol + Decitabine; first compound 0.03162 µM) | relative viability (Elesclomol + Decitabine; first compound 0.1 µM) |
| --- | --- | --- | --- | --- | --- | --- | --- | --- | --- | --- | --- | --- | --- | --- | --- | --- | --- | --- | --- | --- |
| 201T | 0.953 | 0.884 | 0.86 | 0.61 | 0.672 | 0.652 | 0.665 | 0.674 | 0.683 | 0.587 | 0.386 | 0.369 | 1.16 | 1.16 | 1.23 | 1.16 | 0.869 | 0.844 | 0.818 | 0.854 |
| A-427 | 0.963 | 0.554 | 0.529 | 0.18 | 0.678 | 0.345 | 0.648 | 0.45 | 0.45 | 0.2 | 0.3 | 0.149 | 0.904 | 0.827 | 1 | 0.499 | 0.601 | 0.453 | 0.285 | 0.194 |
| ABC-1 | 0.239 | 0.252 | 0.201 | 0.328 | 0.26 | 0.286 | 0.217 | 0.223 | 0.227 | 0.19 | 0.225 | 0.196 |  |  |  |  | 0.409 | 0.345 | 0.318 | 0.279 |
| BEN | 0.937 | 0.677 | 0.344 | 0.307 | 0.549 | 0.292 | 0.3 | 0.188 | 0.301 | 0.256 | 0.27 | 0.252 | 0.049 | 0.0566 | 0.0364 | 0.0268 | 0.677 | 0.483 | 0.419 | 0.333 |
| CAL-12T | 0.939 | 0.442 | 0.269 | 0.0778 | 0.521 | 0.146 | 0.0826 | 0.0934 | 0.504 | 0.277 | 0.139 | 0.0937 | 1 | 0.243 | 0.123 | 0.0625 |  |  |  |  |
| COR-L23 | 0.969 | 0.629 | 0.461 | 0.256 | 0.662 | 0.308 | 0.224 | 0.24 | 0.757 | 0.408 | 0.254 | 0.0774 | 0.9 | 0.616 | 0.461 | 0.0852 | 0.439 | 0.347 | 0.282 | 0.163 |
| COR-L 105 | 0.85 | 0.472 | 0.344 | 0.221 | 0.398 | 0.284 | 0.249 | 0.219 | 0.667 | 0.365 | 0.27 | 0.143 | 0.682 | 0.427 | 0.421 | 0.236 | 0.666 | 0.465 | 0.337 | 0.303 |
| ChaGo-K-1 | 0.947 | 0.952 | 0.663 | 0.199 | 0.481 | 0.239 | 0.194 | 0.242 | 0.591 | 0.462 | 0.221 | 0.136 | 0.739 | 0.374 | 0.258 | 0.221 | 0.531 | 0.473 | 0.415 | 0.163 |
| EKVX | 0.912 | 0.662 | 0.379 | 0.203 | 0.386 | 0.249 | 0.176 | 0.157 | 0.767 | 0.457 | 0.329 | 0.185 | 0.875 | 0.658 | 0.289 | 0.205 | 0.395 | 0.222 | 0.148 | 0.132 |
| EMC-BAC-2 | 1.05 | 0.548 | 0.602 | 0.557 | 0.606 | 0.374 | 0.48 | 0.316 | 0.408 | 0.225 | 0.352 | 0.176 | 1.2 | 1.06 | 1.06 | 0.604 | 0.933 | 0.804 |  | 0.408 |
| EPLC-272H | 0.876 | 0.514 | 0.534 | 0.128 | 0.349 |  | 0.341 | 0.11 | 0.295 |  | 0.304 | 0.138 | 1.1 |  | 1.03 | 0.164 | 0.35 | 0.134 | 0.0913 | 0.103 |
| H3255 | 0.879 | 0.785 | 0.566 | 0.442 | 0.433 | 0.336 | 0.315 | 0.266 | 0.538 | 0.537 | 0.489 | 0.421 | 0.629 | 0.457 | 0.171 | 0.128 | 0.617 | 0.486 | 0.296 | 0.243 |
| HARA | 0.883 | 0.879 | 0.919 | 0.293 | 0.548 | 0.325 | 0.363 | 0.081 | 0.524 | 0.211 | 0.31 | 0.0896 | 1.16 | 1.17 | 0.884 | 0.267 | 0.562 | 0.584 | 0.271 | 0.158 |
| HCC-15 | 0.964 | 0.828 | 0.626 | 0.231 | 0.719 | 0.522 | 0.523 | 0.289 | 0.727 | 0.412 | 0.276 | 0.0961 | 0.73 | 0.656 | 0.439 | 0.373 | 0.623 | 0.478 | 0.343 | 0.206 |
| HCC-44 | 0.968 | 0.935 | 0.831 | 0.764 | 0.592 | 0.578 | 0.554 | 0.322 | 0.636 | 0.198 | 0.351 | 0.11 | 0.941 | 0.993 | 0.987 | 0.538 | 0.913 | 0.941 | 0.952 | 0.94 |
| HCC-78 | 0.87 | 1 | 0.861 | 0.926 | 0.252 | 0.2 | 0.229 | 0.217 | 0.356 | 0.399 | 0.364 | 0.322 | 0.778 | 0.755 | 0.793 | 0.627 | 0.727 | 0.674 | 0.701 | 0.564 |

From the supplement of paper PMC10307832
